Test results published in patent publication US5120713A, “Treatment of obesity with an alpha-2-adrenergic agonist and a growth hormone releasing peptide” (Applied Research Systems ARS Holding N.V., priority 1990, dated 1992).
No end group written: not given here.

Key:
[1] = tested on: plasma GH; assay: Plasma GH response (RIA) in prepubertal obese children after clonidine, galanin and/or GHRH; assay type: in vivo, human (obese children); conditions: for Mean Peak GH Response: Obese patient group, Clo 150 micrograms/m^2 oral at time 0, GHRH 1 microgram/kg i.v. bolus at 60 min, Gal 50 pmol/kg/min infusion 55-120 min
Experimental: Eight prepubertal obese children (boys), aged 10 to 12.4 years, all in good general health and taking no medication, participated in the study with informed consent (parent and child). All had height within normal percentiles for chronological age. Bone age was advanced 6-24 months in all but one patient and weight was above the […] for chronological age in all cases. The children were tested six times at random intervals ranging from 7 to 10 days, each patient serving as their own control. Studies commenced at 0900 h after an overnight fast and bed rest and thirty minutes after the insertion of a nontrombogenic catheter for blood withdrawal in a forearm vein. The study consisted of administering clonidine (Catapresan, Boehringer Ingelheim, Spain) orally at 150 micrograms/m^2 at time 0 followed by administering GHRH (GRF 1-29, Serono, Spain) as an intravenous bolus at 1 microgram/kg at time 60 minutes. The control experiments consisted of administering on separate occasions either clonidine at time 0 or GHRH at time 60 minutes. Blood samples for GH assays (RIA, BioMerieux, France) were taken at 15 minute intervals for two hours. The mean intra-assay coefficient of variation was 5.9, 4.6 and 3.9% at mean GH concentrations of 1.5, 8 and 24 micrograms/L respectively. To avoid inter-assay variations, all samples from a subject were run in the same assay.
(§1) Galanin (Gal) was administered alone, with clonidine (Clo) and with GHRH by infusion as a saline solution at 50 pmol/kg/min through a Millex-GY (0.22 um, Millipore) filter at time 55 to 120 minutes in all experiments. Also, for comparison purposes a similar group of short stature children diagnosed as having constitutional growth delay (CGD) were administered GHRH, galanin plus GHRH, and clonidine plus GHRH (previous study) by the same procedure.

[2] = tested on: GH; conditions: normal children and adolescents; reported (ref 9); cited from earlier work
[3] = tested on: plasma GH; assay: Plasma GH response in short children with constitutional growth delay (CGD); assay type: in vivo, human (short stature children
Experimental: as §1

| Compound | Mean Peak GH Response [1] [µg/L] | mean peak (maximal) plasma GH level ([1]; obese children) [µg/L] | plasma GH response (in words) ([1]; obese children) | maximal GH value in one patient ([1]; obese children, single responding patient, at time 105 min) [µg/L] | GHRH-induced GH response [2] [µg/L] | time of GH peak after administering GHRH ([1]; obese children) [min] | Mean Peak GH Response ([3]; CGD patient group, same procedure) [µg/L] | mean GH peak ([3]; control group of short children with constitutional growth delay) [µg/L] |
| --- | --- | --- | --- | --- | --- | --- | --- | --- |
| Clc1cccc(Cl)c1NC1=NCCN1 [Clo, 2-(2,6-dichloroanilino)-2-imidazoline] | 2.9 ± 0.8 | 2.9 ± 0.8 | did not produce any significant plasma GH increase | 6.5 |  |  |  |  |
| GHRH: growth hormone releasing hormone, GRF 1-29 (Serono, Spain) (YADAIFTNSYRKVLGQLSARKLLQDIMSR; ends and bridges not checked; UniProt P01286 32-60, looked up, fragment) | 9.6 ± 2 | 9.6 ± 2 | slight but significant increase in plasma GH |  | 25.8 ± 5.6 | 45 | 17.1 ± 4.3 | 17.1 ± 4.3 |
